Laboratory results as given in ChEMBL document CHEMBL5674884, “Ezh2 inhibition in Kras-driven lung cancer amplifies inflammation and associated vulnerabilities” (J Exp Med, 2018).
Active and inactive are the calls of the source.

Tests used:
Type in all cases: functional, cell-based
[1] = system: A549; experiment: Reversal of GSK126 dependent antiinflammatory activity in human A549 cells assessed as decrease in Ccl2 level by qRT-PCR analysis
[2] = system: A549; experiment: Reversal of GSK126 dependent antiinflammatory activity in human A549 cells assessed as decrease in Irak1 level by qRT-PCR analysis
[3] = system: A549; experiment: Reversal of GSK126 dependent antiinflammatory activity in human A549 cells assessed as decrease in IL-6 level by qRT-PCR analysis
[4] = system: A549; experiment: Reversal of GSK126 dependent antiinflammatory activity in human A549 cells assessed as decrease in Il1ra level by qRT-PCR analysis

Measured: Activity

CN1CC[C@H](c2c(O)cc(O)c3c(=O)cc(-c4ccccc4Cl)oc23)[C@H](O)C1
active: all assays above

CC(C)(C)c1cnc(CSc2cnc(NC(=O)C3CCNCC3)s2)o1
active: all assays above
